Assay results: US11203777B2, “Method of preparing sterilized compositions for stabilization of extracellular nucleic acids” (Qiagen GmbH, priority 2015, dated 2021)
Residues, ends and D or L forms follow the SMILES beside them. *: point of attachment. Cbz = O=C(OCc1ccccc1)*; CH2F = FC*

Legend:
[1] = HPLC quantification of caspase inhibitor in stabilization reagent before and after gamma irradiation; assay type: physicochemical; conditions: for [Casp] (Pre-Irr) / [Casp] (Post-Irr): 50 ml bulk; for [Casp] (Post-Irr): 25 kGy
Protocol: Caspase inhibitor (Q-VD-OPh) was dissolved and diluted in DMSO for generation of a standard curve. Concentrations of 7.5, 15, 30 and 60 μg/ml were used to generate the standard curve.
Stabilization reagents containing a mixture of caspase inhibitor, EDTA, DMPA and PEG were tested before and after gamma irradiation. Unique peaks for caspase inhibitor were identified and compared to the standard curve for total quantification of caspase inhibitor. The concentration of caspase inhibitor was determined before and after irradiation, and these concentrations were compared for relative quantification.
For the production of PAXgene Blood ccfDNA Alpha blood collection tubes (Alpha BCT), BD standard tubes for 10 ml blood draw were filled with 1.3-1.7 ml ccfDNA stabilization reagent. The exemplary stabilization reagents tested comprised a mixture of caspase inhibitor (Q-VD-OPh), K2EDTA, DMPA, PEG300 and PEG10000, according to PCT/EP2015/055699. A vacuum was applied to the tubes to allow for a 10.25 ml blood draw. Tubes were sterilized by gamma irradiation using Cobalt-60 as energetic gamma ray source in a range of 5 to 35 kGy. […]
Stabilization reagents were produced with or without the addition of radical scavengers and sterilized in bulk by gamma irradiation. The caspase inhibitor concentration was measured by HPLC before and after irradiation to determine the effect of scavenger addition on caspase inhibitor degradation during sterilization by gamma irradiation.
Stabilization reagents according to PCT/EP2015/055699 were produced with or without the addition of radical scavengers in different concentrations and with different concentrations of caspase inhibitor. PAXgene Blood ccfDNA Alpha tubes were produced by filling 1.7 ml of the respective stabilization reagent into a standard Vacutainer. Tubes were sterilized by gamma irradiation with different energy levels. The caspase inhibitor concentration was measured by HPLC before and after irradiation (see Table 7 below).

[2] = test system: ccfDNA level in whole blood (66 bp and 500 bp fragments of the 18S rDNA gene); experiment: ccfDNA stabilization in stored whole blood, real time PCR of 18S rDNA fragments in plasma; conditions: for copy numbers of the 500 bp fragment of the 18S rDNA gene: caspase inhibitor approx. 5 μM in stabilized blood, 6 donors, FIG. 10; for change of copy numbers (x fold change) of 66 bp and 500 bp fragments of the 18S rDNA gene: 6 days at room temperature, FIG. 3
Protocol: Blood was drawn into Alpha BCT for stabilization of the ccfDNA level. 10 ml spray dried EDTA tubes (BD) with 1.8 mg K2EDTA per ml of whole blood served as non-stabilized negative control. Blood and reagents were mixed by inverting the tube ten times. Stabilized and non-stabilized blood samples were stored at room temperature standing in an upright position.
Whole blood samples were centrifuged at ambient temperature for 15 min at 1.900×g. The clear plasma fraction was transferred into a fresh centrifuge tube. In a second round, plasma samples were centrifuged for 10 min at 16.000×g in case of non-stabilized EDTA-blood or for 10 min at 1.900×g in case of stabilized Alpha BCT blood. The supernatant was transferred into a new tube and used either directly for the purification of ccfDNA or stored at −20° C. until use.
DNA from plasma was isolated with the QIAamp circulating nucleic acid kit (QIAGEN GmbH), using the protocol for purification of circulating nucleic acids from 1 ml, 2 ml, or 3 ml serum or plasma. If not stated otherwise, 2 ml of plasma was mixed with proteinase K and lysis buffer ACL, incubated for 30 min at 60° C., mixed with buffer ACB, bound on QIAamp Mini columns with the use of a QIAvac 24 Plus vacuum manifold, washed and eluted with 60 μl elution buffer AVE, according to the manufactures recommendations.
ccfDNA from 2 ml plasma was isolated with a preliminary version of the QIAsymphony Circulating DNA protocol and kit (QIAGEN). If not stated otherwise, the QIAsymphony robot mixed 2 ml of plasma with proteinase K, binding buffer and magnetic beads. Beads with bound DNA were washed three times and DNA was eluted using 60 μl elution buffer.
To measure the amount of ccfDNA, a real time PCR assay on Abi Prism HT7900 (Life Technologies) was performed with 3 μl of eluate. In a 20 μl assay volume using QuantiTect Multiplex PCR Kit reagents (QIAGEN GmbH), two fragments of the human 18S rDNA gene were amplified in a multiplex PCR. Total quantification was achieved by comparison with a standard curve generated with human genomic DNA diluted from 3000 to 0.3 genome equivalents (1 genome equivalent equates to around 6.6 μg of human genomic DNA).
Quantification of the 66 bp fragment was used to reflect the total amount of 18S rDNA copies in the plasma. Quantification of the 500 bp was used to determine the amount of 18S rDNA copies which derived from apoptotic or mechanically lysed leukocytes from whole blood. […] The increase of copy numbers from the 500 bp fragment between day 0 and 3 or 6 days storage, was used as a measurement of stability efficiency.
PAXgene Blood ccfDNA Alpha tubes were produced and sterilized by gamma irradiation with different energy levels. Samples of 10 ml whole blood from eight donors were collected in 10 ml spray dry K2EDTA tubes (non-stabilized controls) and in PAXgene Blood ccfDNA Alpha tubes. Plasma was generated from 5 ml of stabilized or non-stabilized blood samples directly after blood draw. Residual blood was stored for additional 6 days at room temperature before plasma generation. ccfDNA was purified manually from 2 ml plasma, copy numbers of 18S rDNA gene were determined in triplicates by real time PCR.
Samples of 10 ml whole blood from eight donors were collected in 10 ml spray dry K2EDTA tubes. Directly after blood draw, non-stabilized blood samples were stabilized by addition of 1.7 ml of a ccfDNA stabilization reagent according to PCT/EP2015/055699 with or without addition of the different compounds tested for their impact on extracellular nucleic acid stabilization.
Plasma was generated from 5 ml of stabilized blood samples directly after the blood draw (day 0).

[3] = scavenger 1 mg/ml, casp-inh. 5 μM, 0 kGy
[4] = scavenger 1 mg/ml, casp-inh. 5 μM, 20 kGy
[5] = scavenger 1 mg/ml, casp-inh. 5 μM, 30 kGy
[6] = scavenger 5-10 mg/ml, 0.5-1% (w/v)
[7] = scavenger 0.1-1 mg/ml, 0.01-0.1% (w/v)

SMILES: Cc1c(C)c2c(c(C)c1O)CCC(C)(C(=O)O)O2 (stereo not shown) [Trolox, 6-hydroxy-2,5,7,8-tetramethylchromane-2-carboxylic acid]
- [Casp] (Pre-Irr) ([1]; scavenger 4 mM): 16.534 µg/mL
- [Casp] (Post-Irr) ([1]; scavenger 4 mM): 3.0195 µg/mL
- [Casp] (Pre-Irr) ([1]; scavenger 5 mM in DMSO): 16.649 µg/mL
- [Casp] (Post-Irr) ([1]; scavenger 5 mM in DMSO): 3.3548 µg/mL

SMILES: Cc1ncc(CO)c(CO)c1O [vitamin B6, pyridoxine]
- number of 500 bp fragments of the 18S rDNA gene compared to the stabilization reagent without scavenger (irradiated) ([2]; 2 mg/ml in reagent, irradiated (30 kGy) as well as unirradiated, 8 donors, 5 days at room temperature, FIG. 9): only half

SMILES: COC(=O)CC(NC(=O)OC(C)(C)C)C(=O)CF [Boc-D-(OMe)-FMK]
- copy numbers of the 500 bp fragment of the 18S rDNA gene ([2]; 5 days at room temperature): comparable to the fragment numbers in blood stabilized with the PAXgene Blood ccfDNA Tube

SMILES: O=C1O[C@H]([C@@H](O)CO)C(O)=C1O [Ascorbic acid]
- HPLC Testing [C-Inh] [1, 3]: 18.2 µg/mL
- HPLC Testing [C-Inh] [1, 4]: 7.0 µg/mL
- HPLC Testing [C-Inh] [1, 5]: 5.0 µg/mL
- HPLC Testing [C-Inh] ([1]; scavenger 2 mg/ml, casp-inh. 5 μM, 10 kGy): 15.2 µg/mL
- HPLC Testing [C-Inh] ([1]; scavenger 2 mg/ml, casp-inh. 5 μM, 20 kGy): 10.7 µg/mL
- HPLC Testing [C-Inh] ([1]; scavenger 2 mg/ml, casp-inh. 5 μM, 30 kGy): 9.5 µg/mL
- [Casp] (Pre-Irr) ([1]; scavenger 5 mg/ml-27.5 mM): 16.522 µg/mL
- [Casp] (Post-Irr) ([1]; scavenger 5 mg/ml-27.5 mM): 12.5986 µg/mL
- HPLC Testing [C-Inh] ([1]; scavenger 5 mg/ml, casp-inh. 5 μM, 0 kGy): 19.2 µg/mL
- HPLC Testing [C-Inh] ([1]; scavenger 5 mg/ml, casp-inh. 5 μM, 10 kGy): 16.0 µg/mL
- HPLC Testing [C-Inh] ([1]; scavenger 5 mg/ml, casp-inh. 5 μM, 20 kGy): 12.8 µg/mL
- HPLC Testing [C-Inh] ([1]; scavenger 5 mg/ml, casp-inh. 5 μM, 30 kGy): 12.1 µg/mL
- HPLC Testing [C-Inh] ([1]; scavenger 5 mg/ml, casp-inh. 10 μM, 0 kGy): 37.7 µg/mL
- HPLC Testing [C-Inh] ([1]; scavenger 5 mg/ml, casp-inh. 10 μM, 10 kGy): 31.2 µg/mL
- HPLC Testing [C-Inh] ([1]; scavenger 5 mg/ml, casp-inh. 10 μM, 20 kGy): 26.8 µg/mL
- HPLC Testing [C-Inh] ([1]; scavenger 5 mg/ml, casp-inh. 10 μM, 30 kGy): 23.7 µg/mL
- HPLC Testing [C-Inh] ([1]; scavenger 5 mg/ml, casp-inh. 15 μM, 0 kGy): 55.5 µg/mL
- HPLC Testing [C-Inh] ([1]; scavenger 5 mg/ml, casp-inh. 15 μM, 10 kGy): 46.4 µg/mL
- HPLC Testing [C-Inh] ([1]; scavenger 5 mg/ml, casp-inh. 15 μM, 20 kGy): 40.6 µg/mL
- HPLC Testing [C-Inh] ([1]; scavenger 5 mg/ml, casp-inh. 15 μM, 30 kGy): 35.5 µg/mL
- HPLC Testing [C-Inh] ([1]; scavenger 10 mg/ml, casp-inh. 5 μM, 0 kGy): 18.4 µg/mL
- HPLC Testing [C-Inh] ([1]; scavenger 10 mg/ml, casp-inh. 5 μM, 10 kGy): 16.0 µg/mL
- HPLC Testing [C-Inh] ([1]; scavenger 10 mg/ml, casp-inh. 5 μM, 20 kGy): 13.5 µg/mL
- Protection against gamma irradiation [1, 6]: high
- average total copy numbers of the 500 bp fragment of the 18S rDNA gene ([2]; scavenger 20 mg/ml, directly after blood collection, FIG. 5): reduced ccfDNA absolute copy numbers
- Effect on ccfDNA stability [2, 6]: neutral

SMILES: N[C@@H](CCC(=O)N[C@@H](CS)C(=O)NCC(=O)O)C(=O)O [Glutathione]
- HPLC Testing [C-Inh] ([1]; scavenger 0.05 mg/ml, casp-inh. 5 μM, 0 kGy): 19.1 µg/mL
- HPLC Testing [C-Inh] ([1]; scavenger 0.05 mg/ml, casp-inh. 5 μM, 10 kGy): 14.1 µg/mL
- HPLC Testing [C-Inh] ([1]; scavenger 0.05 mg/ml, casp-inh. 5 μM, 20 kGy): 8.9 µg/mL
- HPLC Testing [C-Inh] ([1]; scavenger 0.05 mg/ml, casp-inh. 5 μM, 30 kGy): 6.6 µg/mL
- [Casp] (Pre-Irr) ([1]; scavenger 100 μg/ml-320 μM): 16.454 µg/mL
- [Casp] (Post-Irr) ([1]; scavenger 100 μg/ml-320 μM): 10.4422 µg/mL
- HPLC Testing [C-Inh] ([1]; scavenger 0.1 mg/ml, casp-inh. 5 μM, 0 kGy): 18.8 µg/mL
- HPLC Testing [C-Inh] ([1]; scavenger 0.1 mg/ml, casp-inh. 5 μM, 10 kGy): 14.3 µg/mL
- HPLC Testing [C-Inh] ([1]; scavenger 0.1 mg/ml, casp-inh. 5 μM, 20 kGy): 9.9 µg/mL
- HPLC Testing [C-Inh] ([1]; scavenger 0.1 mg/ml, casp-inh. 5 μM, 30 kGy): 7.5 µg/mL
- HPLC Testing [C-Inh] ([1]; scavenger 0.1 mg/ml, casp-inh. 10 μM, 0 kGy): 37.9 µg/mL
- HPLC Testing [C-Inh] ([1]; scavenger 0.1 mg/ml, casp-inh. 10 μM, 10 kGy): 29.4 µg/mL
- HPLC Testing [C-Inh] ([1]; scavenger 0.1 mg/ml, casp-inh. 10 μM, 20 kGy): 23.3 µg/mL
- HPLC Testing [C-Inh] ([1]; scavenger 0.1 mg/ml, casp-inh. 10 μM, 30 kGy): 17.7 µg/mL
- HPLC Testing [C-Inh] ([1]; scavenger 0.1 mg/ml, casp-inh. 15 μM, 0 kGy): 55.5 µg/mL
- HPLC Testing [C-Inh] ([1]; scavenger 0.1 mg/ml, casp-inh. 15 μM, 10 kGy): 42.7 µg/mL
- HPLC Testing [C-Inh] ([1]; scavenger 0.1 mg/ml, casp-inh. 15 μM, 20 kGy): 33.2 µg/mL
- HPLC Testing [C-Inh] ([1]; scavenger 0.1 mg/ml, casp-inh. 15 μM, 30 kGy): 25.0 µg/mL
- HPLC Testing [C-Inh] ([1]; scavenger 0.2 mg/ml, casp-inh. 5 μM, 0 kGy): 19.9 µg/mL
- HPLC Testing [C-Inh] ([1]; scavenger 0.2 mg/ml, casp-inh. 5 μM, 20 kGy): 11.9 µg/mL
- HPLC Testing [C-Inh] ([1]; scavenger 0.2 mg/ml, casp-inh. 5 μM, 30 kGy): 10.2 µg/mL
- HPLC Testing [C-Inh] ([1]; scavenger 0.5 mg/ml, casp-inh. 5 μM, 10 kGy): 15.4 µg/mL
- HPLC Testing [C-Inh] ([1]; scavenger 0.5 mg/ml, casp-inh. 5 μM, 20 kGy): 12.3 µg/mL
- HPLC Testing [C-Inh] ([1]; scavenger 0.5 mg/ml, casp-inh. 5 μM, 30 kGy): 11.1 µg/mL
- HPLC Testing [C-Inh] [1, 3]: 20.0 µg/mL
- HPLC Testing [C-Inh] [1, 4]: 13.8 µg/mL
- HPLC Testing [C-Inh] [1, 5]: 12.6 µg/mL
- Protection against gamma irradiation [1, 7]: high
- Effect on ccfDNA stability [2, 7]: neutral

SMILES: CC(C)O [Isopropanol]
- Protection against gamma irradiation ([1]; scavenger 1% (v/v)): none
- [Casp] (Pre-Irr) ([1]; scavenger 1%): 16.572 µg/mL
- [Casp] (Post-Irr) ([1]; scavenger 1%): 0.8517 µg/mL

SMILES: COC(=O)C[C@H](NC(=O)[C@H](C)NC(=O)[C@@H](NC(=O)OCc1ccccc1)C(C)C)C(=O)CF [Z-VAD (OMe)-FMK, Z-Val-Ala-Asp(OMe)-FMK] (Cbz-Val-Ala-Asp(OMe)-CH2F)
- copy numbers of the 500 bp fragment of the 18S rDNA gene ([2]; 5 days at room temperature): comparable to the fragment numbers in blood stabilized with the PAXgene Blood ccfDNA Tube

SMILES: O=C(OC[C@H]1O[C@@H](OC(=O)c2cc(O)c(O)c(OC(=O)c3cc(O)c(O)c(O)c3)c2)[C@H](OC(=O)c2cc(O)c(O)c(OC(=O)c3cc(O)c(O)c(O)c3)c2)[C@@H](OC(=O)c2cc(O)c(O)c(OC(=O)c3cc(O)c(O)c(O)c3)c2)[C@@H]1OC(=O)c1cc(O)c(O)c(OC(=O)c2cc(O)c(O)c(O)c2)c1)c1cc(O)c(O)c(OC(=O)c2cc(O)c(O)c(O)c2)c1 [Tannic acid]
- change of copy numbers (x fold change) of 66 bp and 500 bp fragments of the 18S rDNA gene ([2]; scavenger 1 mg/ml in non-irradiated reagent, 8 donors): lead to an increased release of DNA

SMILES: CCCCCCCC/C=C\CCCCCCCC(=O)OCCOCC(OCCO)C1OCC(OCCO)C1OCCO (stereo not shown) [Tween-80]
- [Casp] (Pre-Irr) ([1]; scavenger 0.6 mM): 16.550 µg/mL
- [Casp] (Post-Irr) ([1]; scavenger 0.6 mM): 0.8856 µg/mL
- Protection against gamma irradiation ([1]; scavenger 0.74 mg/ml, 0.07% (v/v)): none

SMILES: OC[C@@H](O)[C@@H](O)[C@H](O)[C@H](O)CO [Mannitol]
- Protection against gamma irradiation ([1]; scavenger 5 mg/ml, 0.5% (w/v)): none
- [Casp] (Pre-Irr) ([1]; scavenger 0.5%): 16.554 µg/mL
- [Casp] (Post-Irr) ([1]; scavenger 0.5%): 1.0667 µg/mL

SMILES: O=C(O)c1cc(O)c(O)c(O)c1 [Gallic acid]
- [Casp] (Pre-Irr) ([1]; scavenger 500 μg/ml-2.9 mM): 16.633 µg/mL
- [Casp] (Post-Irr) ([1]; scavenger 500 μg/ml-2.9 mM): 0.5888 µg/mL
- Protection against gamma irradiation ([1]; scavenger 0.5-2 mg/ml, 0.2% (w/v)): none
- change of copy numbers (x fold change) of 66 bp and 500 bp fragments of the 18S rDNA gene ([2]; scavenger 2 mg/ml in non-irradiated reagent, 8 donors): lead to an increased release of DNA
